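Method: 48-hour compound exposure of cells in 96-well plates, five concentrations, linear interpolation of endpoints. TGI marks complete inhibition of growth.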
Experiments:
Assay in all cases: NCI tumour cell line growth inhibition, 48 h
RXF-631 renal = tested on: RXF-631 renal
HOP-18 NSCLC = tested on: HOP-18 NSCLC
SN12K1 renal = tested on: SN12K1 renal
P388 leukemia = tested on: P388 leukemia
P388/ADR leukemia = tested on: P388/ADR leukemia

Compound: CN=C(N)c1ccc(N=C(N)c2ccc(C(N)=Nc3ccc(C(N)=NC)cc3)cc2)cc1
- TGI (RXF-631 renal): > 100 µM

Compound: Cc1ccc2c(ccc(/C=C\c3cc(C)c4cccnc4c3O)[n+]2C)c1
- TGI (HOP-18 NSCLC): 9.28 µM

Compound: Clc1ccc(C[P+]2(c3ccccc3)CCCCC2)cc1
- TGI (HOP-18 NSCLC): > 100 µM

Compound: COc1cc(C(=O)CC2OC(=O)C(Cl)=C2Cl)ccc1Cl (stereo not given)
- TGI (HOP-18 NSCLC): > 100 µM
- TGI (RXF-631 renal): > 100 µM

Compound: OCc1cc2ccncc2c2c1[nH]c1ccccc12
- TGI (HOP-18 NSCLC): 27.4 µM

Compound: Cc1ccc(C2COc3cc(O)c(O)cc3C2)cc1 (stereo not given)
- TGI (SN12K1 renal): 75 µM
- TGI (HOP-18 NSCLC): 98.2 µM
- TGI (P388 leukemia): 750 µM
- TGI (P388/ADR leukemia): 750 µM

Source: PubChem BioAssay (NCI)
